Experimental data from patent publication US11524938B2, “Aromatic sulfonamide derivatives” (Bayer Pharma Aktiengesellschaft, priority 2016, dated 2022).

Legend:
Assay type in all cases: cell-based
[1] = target: T1, human P2X4 (Homo sapiens, UniProt Q99571); assay: Human P2X4 HEK Cell FLIPR Assay; details: HEK293, HEK293 cells, agonist Bz-ATP at EC80; percentage of maximal inhibition; read-out: Human P2X4 HEK Cells (FLIPR Assay) avg Efficacy [%]
T1 sequence (Q99571 1-388): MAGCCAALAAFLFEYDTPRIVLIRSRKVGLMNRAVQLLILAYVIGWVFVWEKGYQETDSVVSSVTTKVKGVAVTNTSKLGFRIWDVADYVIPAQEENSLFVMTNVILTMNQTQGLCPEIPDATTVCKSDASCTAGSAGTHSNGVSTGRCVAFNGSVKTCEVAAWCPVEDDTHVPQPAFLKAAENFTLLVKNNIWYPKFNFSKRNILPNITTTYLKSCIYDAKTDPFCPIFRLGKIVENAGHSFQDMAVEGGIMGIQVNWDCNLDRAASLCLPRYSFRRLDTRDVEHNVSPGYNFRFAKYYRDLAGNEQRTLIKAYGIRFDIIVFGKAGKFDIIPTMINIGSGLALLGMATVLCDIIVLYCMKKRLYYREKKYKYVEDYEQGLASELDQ
Summary of the method: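 HEK293 cells stably expressing human P2X4, Fluo8-AM loaded 30 min at 37° C, then compound 30 min at room temperature (0.5% DMSO, pH 7.4 buffer with 1.8 mM CaCl2). Bz-ATP at its daily-determined EC80 added; calcium fluorescence read over 120 sec; IC50 from peak RFU normalized to agonist control, triplicates.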

[2] = target: T1, human P2X4; assay: FLIPR assay, human P2X4 1321N1 Astrocytoma cells; details: agonist Mg-ATP 0.5 μM (EC80)
Description: (§1) 1321N1 Astrocytoma cells stably expressing human P2X4 or rat P2X4 or mouse P2X4 were plated in Collagen I TC-treated microplate at a seeding density of 10000 cells/well and incubated overnight. P2X4 function was assessed by measuring intracellular calcium changes using the calcium-chelating dye Fluo8-AM (Molecular Devices) on a fluorescent imaging plate reader (FLEX/FLIPR station; Molecular Devices). On the day of the assay, the medium was removed and the cells were incubated for 30 min at 37 °C and 5% CO2 in 30 μL of dye buffer (Hank's balanced salt solution, 10 mM HEPES, 1.8 mM CaCl2, 1 mM MgCl2, 2 mM probenecid, 5 mM D-glucose monohydrate, 5 μM Fluo8-AM, pH=7.4). Compounds diluted in probenecid buffer (Hank's balanced salt solution, 10 mM HEPES, 1.8 mM CaCl2, 1 mM MgCl2, 2 mM probenecid, 5 mM D-glucose monohydrate, pH=7.4) were added in a volume of 10 μL and allowed to incubate for 30 min at room temperature. The final assay DMSO concentration was 0.25%. The agonist, Mg-ATP (Sigma), was added in a volume of 10 μL at a concentration representing the EC80 value. EC80 was determined to be 0.5 μM for human and mouse P2X4 and 5 μM for rat P2X4. The fluorescence was measured for an interval of 120 sec at 2 sec intervals. The excitation and emission wavelengths used to monitor fluorescence were 470-495 nm and 515-575 nm, respectively. The data was analyzed based on the increase in peak relative fluorescence units (RFU) compared to the basal fluorescence and the data was normalized to the agonist control. The compounds were tested in triplicates per plate and mean values were plotted in Excel XLFit to determine IC50 values, percentage of maximal inhibition and the Hill coefficients.

[3] = target: T2, mouse P2X4 (Mus musculus, UniProt Q9JJX6); assay: FLIPR assay, mouse P2X4 1321N1 Astrocytoma cells; details: agonist Mg-ATP 0.5 μM (EC80)
T2 sequence (Q9JJX6 1-388): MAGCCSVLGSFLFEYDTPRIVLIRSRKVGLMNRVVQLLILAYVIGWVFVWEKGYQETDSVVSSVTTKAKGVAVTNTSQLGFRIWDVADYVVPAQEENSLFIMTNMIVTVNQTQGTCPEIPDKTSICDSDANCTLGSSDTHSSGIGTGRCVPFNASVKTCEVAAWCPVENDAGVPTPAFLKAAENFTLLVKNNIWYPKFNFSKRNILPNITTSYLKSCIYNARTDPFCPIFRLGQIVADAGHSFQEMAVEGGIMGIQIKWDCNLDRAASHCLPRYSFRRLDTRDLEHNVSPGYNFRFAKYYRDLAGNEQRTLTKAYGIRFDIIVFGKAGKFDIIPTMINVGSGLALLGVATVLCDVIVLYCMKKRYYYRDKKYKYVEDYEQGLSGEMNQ
Description: as §1

[4] = target: T3, rat P2X4 (Rattus norvegicus, UniProt P51577); assay: FLIPR assay, rat P2X4 1321N1 Astrocytoma cells; details: agonist Mg-ATP 5 μM (EC80)
T3 sequence (P51577 1-388): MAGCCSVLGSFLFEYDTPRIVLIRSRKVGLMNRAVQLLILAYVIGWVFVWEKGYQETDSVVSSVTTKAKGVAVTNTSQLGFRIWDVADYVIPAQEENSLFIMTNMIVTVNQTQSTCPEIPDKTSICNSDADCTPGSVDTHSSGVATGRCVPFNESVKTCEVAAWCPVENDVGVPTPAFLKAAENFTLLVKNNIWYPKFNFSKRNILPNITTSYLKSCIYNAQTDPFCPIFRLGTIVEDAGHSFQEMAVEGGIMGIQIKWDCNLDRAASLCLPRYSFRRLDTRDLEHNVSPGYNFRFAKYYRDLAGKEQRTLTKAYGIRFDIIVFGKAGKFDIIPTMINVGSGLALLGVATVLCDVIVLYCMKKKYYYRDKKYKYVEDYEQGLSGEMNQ
Description: as §1

Emax [1]: 71%
Human P2X4 1321N1 Astrocytoma Cells (FLIPR Assay) avg Efficacy [%] [2]: 60%
Mouse P2X4 1321N1 Astrocytoma Cells (FLIPR Assay) avg Efficacy [%] [3]: 69%
Rat P2X4 1321N1 Astrocytoma Cells (FLIPR Assay) avg Efficacy [%] [4]: 57%
Compound: NS(=O)(=O)c1cc(NC(=O)Cc2ccccc2Cl)ccc1-n1cc(C(F)(F)F)cn1 [Example 19, 2-(2-Chlorophenyl)-N-{3-sulfamoyl-4-[4-(trifluoromethyl)-1H-pyrazol-1-yl]phenyl}acetamide]
